Assay results published in patent US12275995B2, “Lysinibacillus sphaericus and aspirin chemoprevention of colorectal cancer” (priority 2019, dated 2025).

Tests used:
[1] = test system: Lysinibacillus sphaericus; experiment: In vitro incubation of L. sphaericus with antibiotics (cell growth); format: cell-based; conditions: in vitro incubation with single antibiotics of the cocktail
gut microbiota = experiment: Shotgun metagenomics of feces from aspirin-treated versus control APCmin/+ mice; format: in vivo
Experimental: Whole-genome shotgun metagenomic sequencing of fecal samples from mice were performed on Illumina HiSeq 2000 (Illumina, San Diego, Calif.) as previously described^27. […] Mammalian genomes (hg38, felCat8, canFam3, mm10, rn6, susScr3, galGal4 and bosTau8; UCSC Genome Browser) and 6877 bacterial plasmids (NCBI RefSeq database accessed on May 12, 2016), 2116 complete plastomes (NCBI RefSeq database accessed on May 12, 2016) and 6093 UNiVec sequences (NCBI RefSeq database accessed on May 12, 2016), which are potential habitat-/laboratory-associated or extra-chromosomal sequence contaminants, were removed after alignment using Bowtie2 v_2.2.9 with “very-sensitive” default settings. Taxonomy was assigned to metagenomic reads using k-mer-based algorithms implemented in Kraken taxonomic annotation pipeline with each k-mer in a read mapped to the lowest common ancestor of all reference genomes with exact k-mer matches. Each query was thereafter classified to a taxon with the highest total hits of k-mer matched by pruning the general taxonomic trees affiliated with mapped genomes. The final metagenomic read counts were rarified to the sample with the lowest value and further normalized by cumulative sum scaling. In-house fecal metagenomic sequences were examined for the abundance of candidate bacteria identified from mouse fecal samples^27,28.

fecal bacteria = format: in vitro ADME, mice
Experimental: The levels of aspirin from plasma, gut luminal contents and culture medium was determined by ultra-high-performance liquid chromatography-quadrupole time-of-flight mass spectrometry (UHPLC-Q-TOF/MS). The detection sample was mixed in 5 μL 4-[…] (0.39 mg/mL, internal standard). Aspirin and salicylic acid were extracted twice by 400 μL cold methanol. Supernatants were dried under nitrogen stream and detected by UHPLC (1290 Infinity LC, Agilent, Santa Clara, Calif.) and MS (6550 Q-TOF/MS, Agilent, CA). The primary metabolite of aspirin, salicylic acid, in culture medium was examined by Trinder's method^26. Equal number of fecal bacteria (estimated by optical density (OD) 600) from APC^min/+ mice with and without antibiotic treatment were inoculated into the brain heart infusion (BHI) medium (Thermo Fisher Scientific) containing aspirin (10 mM). After 2-hour co-incubation at 37° C., the level of salicylic acid in medium was measured by Trinder's method^26. Briefly, the supernatant of medium was mixed with a solution containing 40 g ferric nitrate, 40 g mercuric chloride and 120 mL 1N HCL in 1 L ddH2O at 1:5 ratio. Salicylic acid was quantified by absorbance value at 540 nm. The plasma and luminal content levels of salicylic acid were evaluated by UHPLC-Q-TOF/MS. Mouse feces were mixed with cooked meat (CM) medium (Thermo Fisher Scientific). […]

colorectal tumorigenesis [2] = experiment: AOM/DSS-induced colorectal cancer model in conventional C57BL/6 mice; format: in vivo
Text: (§1) For each cycle, mice were allowed free access to drinking water supplemented with 2.0% DSS for 5 days, followed by 16 days of regular water. Drinking water was supplemented with antibiotics cocktail (0.2 g/L of ampicillin, neomycin and metronidazole and 0.1 g/L of vancomycin) for two weeks, every other two weeks, till the end of experiment, to deplete the gut microbiota. […] At day 80 for AOM/DSS model and day 84 for APC^min/+ model, mice were harvested. The intestines were longitudinally opened along the mesenteric margin and flushed with ice-cold phosphate-buffered saline (PBS). Solid neoplastic lesions were carefully counted for tumor number and measured for tumor size (average diameter, (major diameter+minor diameter)/2) and tumor load (sum of average diameters of all tumors). The intestinal tissues were fixed in 10% neutral buffered formalin and embedded in paraffin. Sections (4 μm) were stained with hematoxylin and eosin for histological examination by a pathologist (A/Professor Anthony W H Chan) who was blind to the experimental design. The remaining tissues were snap-frozen in liquid nitrogen, and stored at −80° C. until use. All procedures adhered to the guidelines approved by the Animal Experimentation Ethics Committee of the Chinese University of Hong Kong.

[3] = Plasma and luminal aspirin/salicylic acid level in L. sphaericus-monocolonized germ-free mice; format: in vivo; conditions: for plasma level of aspirin: L. sphaericus-monocolonized germ-free mice compared with control germ-free mice
Experimental: (§2) The levels of aspirin from plasma, gut luminal contents and culture medium was determined by ultra-high-performance liquid chromatography-quadrupole time-of-flight mass spectrometry (UHPLC-Q-TOF/MS). The detection sample was mixed in 5 μL 4-C1-phenylalanine (0.39 mg/mL, internal standard). Aspirin and salicylic acid were extracted twice by 400 μL cold methanol. Supernatants were dried under nitrogen stream and detected by UHPLC (1290 Infinity LC, Agilent, Santa Clara, Calif.) and MS (6550 Q-TOF/MS, Agilent, CA).
(§3) The primary metabolite of aspirin, salicylic acid, in culture medium was examined by Trinder's method^26. Equal number of fecal bacteria (estimated by optical density (OD) 600) from APC^min/+ mice with and without antibiotic treatment were inoculated into the brain heart infusion (BHI) medium (Thermo Fisher Scientific) containing aspirin (10 mM). After 2-hour co-incubation at 37° C., the level of salicylic acid in medium was measured by Trinder's method^26. Briefly, the supernatant of medium was mixed with a solution containing 40 g ferric nitrate, 40 g mercuric chloride and 120 mL 1N HCL in 1 L ddH2O at 1:5 ratio. Salicylic acid was quantified by absorbance value at 540 nm. The plasma and luminal content levels of salicylic acid were evaluated by UHPLC-Q-TOF/MS.
In order to determine whether L. sphaericus can degrade aspirin and impacts its bioavailability in vivo, germ-free mice were gavaged with L. sphaericus (1×10^8 CFU) once/day for three days, followed by oral administration of aspirin (10 mg/kg) (FIG. 6C). […] Taken together, these findings from in vitro and in vivo experiments indicate that L. sphaericus causes aspirin degradation in the gut, thereby reducing aspirin bioavailability.

colorectal tumorigenesis [4] = experiment: APCmin/+ spontaneous colorectal cancer mouse model; format: in vivo; conditions: aspirin 400 mg/L drinking water; microbiota-depleted APCmin/+ mice
Experimental: as §1, with “Drinking” for “For each cycle, mice were allowed free access to drinking water supplemented with 2.0% DSS for 5 days, followed by 16 days of regular water. Drinking”, “microbiota. Aspirin (Byer, Leverkusen, Germany), freshly prepared (400 mg/L) in drinking water twice a week, was continuously given to mice through the entire experiment.” for “microbiota.”

[5] = Plasma aspirin/salicylic acid level in APCmin/+ mice with or without antibiotics (UHPLC-Q-TOF/MS); format: in vivo; conditions: for plasma level of aspirin: antibiotics-treated APCmin/+ mice relative to mice with intact microbiota
Experimental: as §2, §3
To determine the reason for the enhanced CRC inhibitory effect of aspirin in microbiota-depleted mice, the plasma level of aspirin was evaluated in mice with or without intact microbiota. Antibiotics cocktail was administered to APC^min/+ mice for five days followed by oral administration of aspirin (10 mg/kg) (FIG. 4A), and subsequent UHPLC-Q-TOF/MS analysis (FIG. 4B). […] To confirm this observation, the level of salicylic acid, the primary metabolite of aspirin, was evaluated in the plasma. The plasma level of salicylic acid increased at 1 h post aspirin administration in microbiota-depleted mice compared to mice with intact microbiota (FIG. 9). These findings indicate that the gut microbiota is associated with the reduction of aspirin bioavailability.

[6] = reference 24, cited from earlier work
COX-2 = COX-2 mRNA in distal colonic tissues by qRT-PCR; format: in vivo, mice; conditions: for tissue COX-2 expression: compared to control mice
Experimental: Total RNA in distal colonic tissues was extracted using TRIzol reagent (Thermo Fisher Scientific). The quality and quantity of RNA were determined by NanoDrop2000 spectrophotometer. Complementary DNA (cDNA) was synthesized from 1000 ng of the extracted RNA by reverse transcription (PrimeScript RT Reagent Kit with gDNA Eraser) (Takara, Japan) and analyzed by qPCR with normalization by GAPDH. The primers used were: […]

PGE2 = experiment: Plasma PGE2 by ELISA; format: in vivo, mice
Experimental: The plasma levels of PGE2 were measured using Multispecies Competitive ELISA Kit (Thermo Fisher Scientific). Briefly, 500 μL ice-cold methanol was added to 150 μL of plasma sample with 28 μM indomethacin and mixed vigorously. After acidification by 2M HCl to pH 3.5, the aqueous layer was extracted with 500 μL chloroform and centrifuged at 2000 g for 20 min^25. The […] organic phase was discarded, and the remaining aqueous phase was evaporated to dryness under nitrogen, before measurement by the kit.

colorectal tumorigenesis [7] = experiment: AOM/DSS-treated germ-free and conventionalized germ-free Kunming mice; format: in vivo
Experimental: Germ-free wild-type Kunming mice (10 weeks old) in male gender were treated with AOM and DSS to induce intestinal neoplasia. The treatment regimens of AOM, DSS and aspirin were the same as described for conventional mice. In a separate experiment, to determine the direct effects of microbiota on chemoprevention, germ-free mice were conventionalized after their cages were placed out of germ-free environment at 10 weeks old prior to treatment. The remaining procedures performed were the same as described for conventional mice. Germ-free mice were bred at the Department of Laboratory Animal Science, The Third Military Medical University, Chongqing, China. The germ-free animal experiments were approved by the Animal Experimentation Ethics Committee of The Third Military Medical University.

[8] = aspirin-treated APCmin/+ mice compared to control
[9] = aspirin 400 mg/L drinking water, microbiota-depleted (antibiotics cocktail) AOM/DSS-treated mice, vs no aspirin
[10] = high-dose aspirin 1200 mg/L, conventional AOM/DSS-treated mice gavaged with L. sphaericus twice/week
[11] = higher dose aspirin 1200 mg/L in drinking water, microbiota-intact AOM/DSS-treated mice, vs mice without aspirin
[12] = 0.5 h post oral aspirin 10 mg/kg
[13] = AOM/DSS mice with depleted microbiota
[14] = APCmin/+ mice with depleted microbiota
[15] = AOM/DSS-treated conventionalized germ-free mice
[16] = AOM/DSS-treated germ-free mice, relative to untreated germ-free control mice

## CC1(C)S[C@@H]2[C@H](NC(=O)[C@H](N)c3ccccc3)C(=O)N2[C@H]1C(=O)O [ampicillin]
[1]
  growth of L. sphaericus: inhibiting the growth

## CC(=O)Oc1ccccc1C(=O)O [aspirin, acetylsalicylic acid]
Gut microbiota; antibiotics-naive aspirin-treated APCmin/+ vs control mice
  association between microbial community composition and aspirin treatment (multivariate component analysis): significant associations
Gut microbiota; [8]
  Bifidobacterium and Lactobacillus genera (linear discriminant analysis effect size): enrichment
  Clostridium and Clostridiodes genera: depleted
  probiotic species B. pseudolongum, B. breve, B. animalis, L. reuteri, L. gasseri, L. johnsonii: enriched
Fecal bacteria
  salicylic acid level in the medium (UHPLC-Q-TOF/MS): not significantly different
Colorectal tumorigenesis [2]; [9]
  colorectal tumor load: significant reductions
  colorectal tumor number: significant reductions
Colorectal tumorigenesis [2]; [10]
  preventive effect on tumor load: marginally
  preventive effect on tumor number: impaired the preventive effect
Colorectal tumorigenesis [2]; [11]
  colorectal tumor load: significantly reduced
  colorectal tumor number: significantly reduced
[3]; [12]
  plasma level of aspirin: significantly reduced
[3]; 1 h post oral aspirin 10 mg/kg
  plasma level of aspirin: significantly reduced
[3]; 3 h post oral aspirin 10 mg/kg, L. sphaericus-monocolonized mice compared to control germ-free mice
  level of salicylic acid in the colon luminal content: significantly reduced
[3]; 3 h post oral aspirin 10 mg/kg, L. sphaericus-monocolonized mice vs control germ-free mice
  plasma level of salicylic acid: significantly lowered
Colorectal tumorigenesis [4]
  colorectal tumor load: significantly decreased
  colorectal tumor number: significantly decreased
[5]; [12]
  plasma level of aspirin: significantly increased
[5]; 1 h post oral aspirin 10 mg/kg
  plasma level of aspirin: significantly increased
[5]; 1 h post oral aspirin 10 mg/kg, microbiota-depleted mice compared to mice with intact microbiota
  plasma level of salicylic acid (primary metabolite of aspirin): increased
[6]; after oral administration
  level in circulation, effect of gut microbiota: reducing its level in circulation
[6]; intravenous administration
  difference in blood levels of aspirin in rats with and without microbial depletion: abolished by intravenous administration
[6]; oral administration
  antithrombotic activity, effect of gut microbiota: reduced the antithrombotic activity
COX-2; [13]
  colonic COX-2 mRNA level: significantly decreased
COX-2; AOM/DSS-treated germ-free mice
  COX-2 expression: reductions
COX-2; [14]
  colonic COX-2 mRNA level: significantly decreased
COX-2; conventional mice with intact microbiota
  tissue COX-2 expression: no differences
COX-2; conventionalized germ-free mice
  tissue COX-2 expression: no differences
PGE2; [13]
  plasma PGE2 level: significantly decreased
PGE2; AOM/DSS-treated germ-free mice
  plasma PGE2 level: reductions
PGE2; [14]
  plasma PGE2 level: significantly decreased
PGE2; conventional mice with intact microbiota, compared to control mice
  plasma PGE2 level: no differences
PGE2; conventionalized germ-free mice, compared to control mice
  plasma PGE2 level: no differences
Colorectal tumorigenesis [7]; [15]
  suppressive effect on tumorigenesis (tumor load): impaired by conventionalization
  suppressive effect on tumorigenesis (tumor number): impaired by conventionalization
Colorectal tumorigenesis [7]; [16]
  colorectal tumor load: significantly reduced
  colorectal tumor number: significantly reduced
